# Where no end group is shown, it is not given here.
# Legend:
# diet-induced obese mice = assay: Intraperitoneal glucose tolerance test (ipGTT); format: in vivo, mouse; conditions: glucose 2 g/kg BW ip, overnight fasted, VHFD 24 weeks
# Description: FIGS. 5C-D are a pair of line graphs Plasma glucose levels (FIG. 5C) and (FIG. 5D) Plasma insulin levels after an intraperitoneal glucose administration ([…] BW ip) in overnight fasted mice fed in VHFD for 24-weeks and 16-weeks of continuous infusions of vehicle or GLP-1(32-36)amide. ***p<4E-03 vehicle vs. GLP-1(32-36)amide, *p<0.01 vehicle vs. GLP-1(32-36)amide, **p<0.004 vehicle vs. GLP-1(32-36)amide, *****p<1.7E-05 vehicle vs. GLP-1(32-36)amide, ****p<6.7 E-04 vehicle vs. GLP-1(32-36)amide.
# Mice were maintained in a normal light/dark cycle according to the standard protocols of the MGH Animal Care and Use Committee. Mice were tested with age matched or litter mate controls and 6 mice per group are required. […] The following morning the mice were prepared for the glucose tolerance test: animals were weighed, the tail was nicked with a fresh razor blade by a horizontal cut of the very end, ˜35 to 50 microliters of blood is massaged from the tail to an eppendorf tube which is immediately placed on ice, baseline blood glucose is measured by the glucose oxidase method using a Glucometer Elite glucometer, and 2 grams/kg body weight of 20% D-glucose is drawn up in a Beckton Dickenson D 29 gage ½″ insulin syringe (one unit of D-glucose for every gram of body weight). Animals were then transferred to individually labeled 1000 cc cardboard soup cups with the lid liners removed.
# Following animal preparation, glucose was injected into the intraperitoneal cavity. At 10, 20, 30, 60, 120, and 140 minutes blood glucose is sampled from the tail of each mouse by gently massaging a small drop of blood onto the glucometer strip. Glucose injections and blood glucose sampling is timed to take approximately the same amount of time per animal (i.e. 25 animals are injected in 12 minutes and blood glucose sampling of those same 25 animals should also take about 12 minutes) so that the sample times are accurate for each animal.
# [1] = Plasma peptide concentrations by LC-MS after continuous infusion; format: in vivo, mouse
# Description: (§1) Mice were given single i.v. injections of the propeptide, GLP-1(9-36)amide and blood samples were taken at times 2, 5, and 10 min. Plasma was assayed for the presence of GLP-1(9-36)amide, GLP-1(28-36)amide, and GLP-1(32-36)amide by electron spray mass spectrometry (ES-MS. Pooled plasma samples collected after a 28 day continuous infusion of GLP-1(9-36)amide or GLP-1(28-36)amide in mice were assayed for peptide concentrations by liquid chromatography mass spectrometry (LC-MS).
# [2] = test system: insulin-resistant isolated mouse hepatocytes; assay: Glucose production assay in isolated hepatocytes; format: cell-based; conditions: stimulated by cAMP/dexamethasone/lactate; basal glucose production not suppressed
# From the text: FIG. 8 is a bar graph showing suppression of glucose production by the pentapeptide GLP-1(32-36)amide (LVKGRamide (SEQ ID NO:1)) in insulin-resistant hepatocytes. Mice (male, C57bl/6) from 12-19 weeks of age were fasted overnight (16 hrs) and primary hepatocytes were isolated using a collagen and perfusion gradient purification. Cells were first seeded using a Dulbecco's modified Eagle's medium (DMEM) supplemented with 10% FBS, 1 g/L glucose, 2 mmol/1 sodium pyruvate, 1 micromol/L dexamethasone, and 0.1 micromol/L insulin, and later maintained in DMEM with 0.2% BSA, 1 g/L glucose, 0.1 micromol/L dexamethasone, and lnmol/L insulin. […] The readings were then normalized to total protein content determined from whole-cell lysates. […]
# Primary hepatocytes (2×10^5 cells per well in twelve-well plates) were pre-treated with GLP-1(32-36)amide for 1 hour followed by the stimulation of insulin resistance by the addition of cAMP (10 microM)/dexamethasone ([…])/sodium lactate (2 mM) in glucose-free DMEM without phenol red. […] The readings were then normalized to total protein content determined from whole-cell lysates.
# [3] = Mass spectrometry of mouse plasma after i.v. injection of GLP-1(9-36)amide; format: in vivo
# Description: FIG. 7B is a line graph showing the results of experiments involving intravenous push injection of GLP-1(9-36)amide, 32-36 amide, and […] into mice, collecting blood plasma at 2, 5, and 10 min, and analyzing the peptide profiles by liquid chromatography-mass spectrometry (LC-MS). Relative amounts of peptides at times indicated are shown. Y-axis, arbitrary units
# as §1
# [4] = pooled mouse plasma after four weeks infusion
"level at time molar at 672 h ([1]; mouse, plasma, 2.0 mg/ml in the osmopump, four weeks infusion, read-out: plasma levels of GLP-1(28-36)amide in mice infused with GLP-1(28-36)amide) [nM]","plasma levels of GLP-1(28-36)amide in mice infused with GLP-1(9-36)amide [1, 4] [nM]","presence of nona and pentapeptides in plasma after injection of GLP-1(9-36)amide ([3]; mouse plasma 2 min after i.v. injection, mass spectrometry)","conversion of GLP-1(9-36)amide to the nona and pentapeptides in the circulation ([3]; mouse plasma, i.v. pulse injection)","plasma concentration of GLP-1(9-36)amide during its continuous infusion [1, 4]",Substance,glycemic response in ipGTT (diet-induced obese mice; 16 weeks infusion (FIG. 5C)),insulin response in ipGTT (diet-induced obese mice; 16 weeks infusion (FIG. 5D)),glucose production (formation) [2]
~0.24,~0.1,–,–,–,"FIAWLVKGR-NH2 [GLP-1(28-36)amide, FIAWLVKGRamide]",normal glycemic response,strong insulin response,dose-dependently suppressed
–,–,readily detected,rapidly converted,not detectable,GLP-1(9-36)amide,–,–,–

# Source: patent publication US10137171B2, “Methods of treatment using a pentapeptide derived from the C-Terminus of Glucagon-Like Peptide 1 (GLP-1)” (The General Hospital Corporation, priority 2011, dated 2018)
